Measurements reported in PubChem BioAssay (NCI).
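96-well plates; 48 h exposure; 5 concentrations. Endpoints by linear interpolation between flanking doses. Not reached: highest tested concentration assigned. Definition used: TGI = concentration required for complete inhibition of growth.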

Tests used:
Assay in all cases: inhibition of tumour cell growth, NCI panel, 48 h
[1] = test system: EKVX NSCLC
[2] = test system: MDA-MB-231 breast
[3] = test system: MDA-MB-435
[4] = test system: OVCAR-8 ovarian
[5] = test system: IGROV1 ovarian
[6] = test system: A549 NSCLC
[7] = test system: HOP-92 NSCLC
[8] = test system: NCI-H460 lung
[9] = test system: KM12 colon
[10] = test system: CCRF-CEM leukemia
[11] = test system: MDA-N
[12] = test system: OVCAR-5 ovarian
[13] = test system: SF-268 CNS
[14] = test system: UACC-62 melanoma
[15] = test system: SK-MEL-28 melanoma
[16] = test system: SW-620 colon
[17] = test system: T-47D breast
[18] = test system: SF-539 CNS
[19] = test system: SK-MEL-5 melanoma
[20] = test system: UO-31 renal
[21] = test system: SK-MEL-2 melanoma
[22] = test system: NCI/ADR-RES ovarian
[23] = test system: U251 CNS
[24] = test system: MOLT-4 leukemia
[25] = test system: HS 578T breast
[26] = test system: ACHN renal
[27] = test system: HCC-2998 colon
[28] = test system: OVCAR-3 ovarian
[29] = test system: HOP-62 NSCLC
[30] = test system: K-562 leukemia
[31] = test system: SF-295 CNS
[32] = test system: DU-145 prostate
[33] = test system: A498 renal
[34] = test system: SNB-19 CNS
[35] = test system: SR leukemia
[36] = test system: SK-OV-3 ovarian
[37] = test system: HT29 colon
[38] = test system: TK-10 renal
[39] = test system: MCF7 breast
[40] = test system: COLO 205 colon
[41] = test system: M14 melanoma
[42] = test system: HL-60(TB) leukemia
[43] = test system: UACC-257 melanoma
[44] = test system: PC-3 prostate
[45] = test system: SNB-75 CNS
[46] = test system: 786-0 renal
[47] = test system: OVCAR-4 ovarian
[48] = test system: NCI-H23 lung
[49] = test system: NCI-H226 lung
[50] = test system: MALME-3M melanoma
[51] = test system: LOX IMVI melanoma
[52] = test system: HCT-15 colon
[53] = test system: CAKI-1 renal
[54] = test system: RXF 393 renal
[55] = test system: RPMI-8226 leukemia
[56] = test system: HCT-116 colon
[57] = test system: SN12C renal
[58] = test system: NCI-H522 lung
[59] = test system: BT-549 breast

CCOC(C)O[C@H]1C(=O)OCC1(C)C (stereo partly specified)
TGI [1]: > 100 µM
TGI [2]: > 100 µM
TGI [3]: > 100 µM
TGI [4]: > 100 µM
TGI [5]: > 100 µM
TGI [6]: > 100 µM
TGI [7]: > 100 µM
TGI [8]: > 100 µM
TGI [9]: > 100 µM
TGI [10]: > 100 µM
TGI [11]: > 100 µM
TGI [12]: > 100 µM
TGI [13]: > 100 µM
TGI [14]: > 100 µM
TGI [15]: > 100 µM
TGI [16]: > 100 µM
TGI [17]: > 100 µM
TGI [18]: > 100 µM
TGI [19]: > 100 µM
TGI [20]: > 100 µM
TGI [21]: > 100 µM
TGI [22]: > 100 µM
TGI [23]: > 100 µM
TGI [24]: > 100 µM
TGI [25]: > 100 µM
TGI [26]: > 100 µM
TGI [27]: > 100 µM
TGI [28]: > 100 µM
TGI [29]: > 100 µM
TGI [30]: > 100 µM
TGI [31]: > 100 µM
TGI [32]: > 100 µM
TGI [33]: > 100 µM
TGI [34]: > 100 µM
TGI [35]: > 100 µM
TGI [36]: > 100 µM
TGI [37]: > 100 µM
TGI [38]: > 100 µM
TGI [39]: > 100 µM
TGI [40]: > 100 µM
TGI [41]: > 100 µM
TGI [42]: > 100 µM
TGI [43]: > 100 µM
TGI [44]: > 100 µM
TGI [45]: > 100 µM
TGI [46]: > 100 µM
TGI [47]: > 100 µM
TGI [48]: > 100 µM
TGI [49]: > 100 µM
TGI [50]: > 100 µM
TGI [51]: > 100 µM
TGI [52]: > 100 µM
TGI [53]: > 100 µM
TGI [54]: > 100 µM
TGI [55]: > 100 µM

CC1(C)/C(=C/N=O)N(O)C(C)(C)N1O
TGI [1]: > 100 µM
TGI [2]: > 100 µM
TGI [3]: 54.5 µM
TGI [4]: > 100 µM
TGI [5]: > 100 µM
TGI [6]: > 100 µM
TGI [7]: > 100 µM
TGI [8]: > 100 µM
TGI [9]: > 100 µM
TGI [10]: > 100 µM
TGI [11]: > 100 µM
TGI [12]: > 100 µM
TGI [13]: > 100 µM
TGI [14]: > 100 µM
TGI [15]: > 100 µM
TGI [16]: > 100 µM
TGI [17]: > 100 µM
TGI [18]: > 100 µM
TGI [19]: > 100 µM
TGI [20]: > 100 µM
TGI [21]: > 100 µM
TGI [22]: > 100 µM
TGI [23]: > 100 µM
TGI [25]: > 100 µM
TGI [26]: > 100 µM
TGI [27]: > 100 µM
TGI [28]: > 100 µM
TGI [29]: > 100 µM
TGI [30]: > 100 µM
TGI [31]: > 100 µM
TGI [32]: > 100 µM
TGI [56]: > 100 µM
TGI [34]: > 100 µM
TGI [35]: > 100 µM
TGI [36]: > 100 µM
TGI [37]: > 100 µM
TGI [38]: > 100 µM
TGI [39]: > 100 µM
TGI [40]: > 100 µM
TGI [41]: > 100 µM
TGI [42]: > 100 µM
TGI [43]: > 100 µM
TGI [44]: > 100 µM
TGI [45]: > 100 µM
TGI [46]: > 100 µM
TGI [47]: > 100 µM
TGI [48]: > 100 µM
TGI [49]: > 100 µM
TGI [50]: > 100 µM
TGI [51]: > 100 µM
TGI [52]: > 100 µM
TGI [53]: > 100 µM
TGI [54]: > 100 µM
TGI [55]: > 100 µM
TGI [57]: > 100 µM

Cc1sc2nc(-c3cccc([N+](=O)[O-])c3)c(/C=N/N=C(N)N)n2c1C
TGI [1]: 3.06 µM
TGI [3]: 3.18 µM
TGI [4]: 3.23 µM
TGI [5]: 2.59 µM
TGI [6]: 3.02 µM
TGI [9]: 3.24 µM
TGI [11]: 3.15 µM
TGI [12]: 3.06 µM
TGI [15]: 3.03 µM
TGI [18]: 3.72 µM
TGI [19]: 3.03 µM
TGI [20]: 3.13 µM
TGI [21]: 3.09 µM
TGI [22]: 45.1 µM
TGI [23]: 3.07 µM
TGI [58]: 3.17 µM
TGI [26]: 3.08 µM
TGI [27]: 2.61 µM
TGI [28]: 4.02 µM
TGI [29]: 3.1 µM
TGI [59]: 2.83 µM
TGI [31]: 2.95 µM
TGI [33]: 2.88 µM
TGI [36]: 3.3 µM
TGI [37]: 2.98 µM
TGI [38]: 2.84 µM
TGI [40]: 3.72 µM
TGI [41]: 2.95 µM
TGI [42]: 3.63 µM
TGI [43]: 3.06 µM
TGI [46]: 3.22 µM
TGI [50]: 3.71 µM
TGI [51]: 3.16 µM
TGI [52]: 3.03 µM
TGI [53]: 3.77 µM
TGI [54]: 3.22 µM
